“And” between values parts separate entries of the source, which are not always exact repeats. Identical values can stand only once. “Also recorded” adds a separate entry of the source. Like-named read-outs stand apart in the source and are kept apart here. Residues, ends and D or L forms follow the SMILES beside them. *: point of attachment. Palmitoyl = CCCCCCCCCCCCCCCC(=O)*
What was measured:
[1] = tested on: EGFP CAG78 RNA-expressing HEK293 cells; type: cell-based; conditions: for suppression of expanded CAG RNA-induced cell death: LDH assay
Experimental: (§1) HEK293 cells were cultured at 37 °C with 5% CO2 in DMEM supplemented with 10% FBS and 1% penicillin-streptomycin. Primary rat cortical neurons were isolated and cultured as previously described. Transient transfection of HEK293 cells was performed using Lipofectamine 2000 (Life Technologies). P3V8 were delivered to HEK293 cells using the DeliverX (DX) Peptide Transfection Kit (Affymetrix) 4 hr after DNA transfection. At least two batches of independently synthesized peptides were used in the experiments.
HEK 293 cells were seeded on a 24-well plate at a density of 0.5 × 10^5, and pEGFP CAG78 DNA construct was used to transfect the cells. […] […] Seventy-two hours after treatment, LDH enzyme activity in the cell culture medium was measured as described before. Experimental groups were normalized to the untransfected control. After normalization, data were analyzed using the dose response-inhibition curve (nonlinear regression-variable slope) to determine the IC50 value (Prism6 software, GraphPad Software, Inc.). Each experiment was repeated at least 3 times.

[2] = Plasma pharmacokinetic study in SD rat
Experimental: SD rats (180–200 g) were anesthetized with an intraperitoneal injection of ketamine (60 mg/kg) and xylazine (6 mg/kg) and received a minor surgery of cannulation with a polythene tube (0.4 mm i.d., 0.8 mm o.d., Harvard Apparatus, Holliston, MA, USA) in the left jugular vein. The rats received an overnight recovery with free access to food and water. […] For the pharmacokinetic study, after the drug administration, blood samples were collected from the catheter at appropriate time intervals (2, 5, 10, 15, 20, 30, 45, 60, and 90 min). After each collection, 0.2 mL of saline containing 25 IU heparin was injected to compensate for the blood loss. Plasma was collected after centrifugation at 8000 rcf for 3.5 min and stored at −80°C until analysis. For brain uptake study, at 20 min, the rat was anesthetized and perfused by 500 mL saline, and the whole brain was collected. The brain was wiped by tissue paper to remove excess water, meninges and blood vessels followed by storage at −80 °C until analysis.
Aliquot of plasma sample (80 μL) was mixed with 160 μL acetonitrile. The mixture was vortexed for 1 min and followed by centrifugation at 13000 rcf for 10 min. The supernatant was collect and subjected to LC/MS/MS analysis.
Agilent 6430 Triple Quadrupole LC/MS/MS system (Agilent Technologies, CA, USA) was employed for the analysis. For analysis of P3V8, chromatographic separation was achieved on a SunFire C8 Column (250 mm × 4.6 mm, 5 µm). The mobile phase of water containing 0.2% formic acid (A) and acetonitrile (B) was used with a gradient elution (0–5 min, 20–70% B). The flow rate was 0.8 mL/min. Multiple reactions monitoring (MRM) with fragmentation transition of 500 to 129 in positive ion mode was employed for quantization of P3V8. […] Mobile phase of water (A) and acetonitrile (B) was used. The gradient elution for plasma samples was 0–4 min, 30–95% B, and for brain samples was 0–9 min, 10–95% B. The flow rate was 0.8 mL/min.
Plasma concentration verse time profiles were analyzed by WinNonlin (Pharsight Corporation, Mountain View, CA, USA, Version 2.1) to obtain the pharmacokinetics parameters. Other data were analyzed by one-way ANOVA followed by post hoc Tukey test or unpaired t-test. “*”, “**”, “***” and “****” represent P < 0.05, P < 0.01, P < 0.001 and P < 0.0001 respectively, which are considered statistically significant.

[3] = tested on: primary rat cortical neurons; assay: LDH cytotoxicity in primary neurons; type: cell-based; conditions: 0.01 nM to 1 µM, 72 hr; P3V8 transfected with DeliverX; 3 independent experiments
Experimental: as §1, with “experiments. […]” for “experiments.”
cortical neurons. A density of […] of primary rat cortical neurons were seeded on culture […]
and 1000 nM of P3V8 peptide (transfected with DeliverX). The lactate dehydrogenase (LDH) cytotoxicity activity was measured 72 hr post-treatment. Fold change of LDH activity was normalized to untreated cells. Data are expressed as mean ± S.E.M. for 3 independent experiments. NS indicates no significance.
(1 picture or pasted object on this page, not shown here)
The LDH cytotoxicity activity was measured 72 hr post-treatment. Fold change of LDH activity was normalized to untreated cells. Data are expressed as mean ± S.E.M. for 3 independent experiments. NS indicates no significance.

HEK293 cells = assay: Cellular uptake studies in HEK293 cells; type: in vitro ADME; conditions: 3 hr, 37 °C, cell lysate, LC/MS, normalized to total protein; for cellular uptake level: 100 nM peptide
Experimental: HEK293 cells were seeded on a 6-well plate at a density of 6 × 10^5 and cultured overnight at 37 °C with 5% CO2 in DMEM supplemented with 10% FBS and 1% penicillin-streptomycin. Cells were then treated with 100, 500 or 1000 nM of respective peptide at 37 °C for 3 hr. After treatment, the cells were washed with ice-cold PBS and then lysed by 2% SDS solution. Aliquot (100 µl) of the cell lysate was added with 200 µl acetonitrile and centrifuged at 13000 rcf for 10 min to precipitate the proteins. The collected supernatant was subjected to LC/MS analysis. The protein concentration of the cell lysate was measured using a bicinchoninic acid protein assay kit following Sigma’s protocol.

[4] = SD rats, intranasal, 3 μmol/kg, pre-treated with 0.5% chitosan, mean ± S.E.M. of 6
[5] = SD rats, intranasal, 3 μmol/kg, pre-treated with 0.5% chitosan, plasma, mean ± S.E.M. of 6
[6] = Sprague-Dawley, rat, in vivo, iv, 3 μmol/kg
[7] = Sprague-Dawley, rat, plasma, iv, 3 μmol/kg

With `CCCCCCCCCCCCCCCC(=O)N[C@@H](CC(=O)O)C(=O)NCC(=O)N[C@@H](CCCCN)C(=O)N[C@@H](CO)C(=O)N[C@@H](CCCCN)C(=O)NCC(=O)N[C@H](C(=O)N[C@@H](C)C(=O)N[C@@H](Cc1ccc(O)cc1)C(=O)N[C@H](C(=O)N[C@@H](CCC(=O)O)C(=O)N[C@@H](Cc1ccccc1)C(=O)N[C@@H](CCCCN)C(N)=O)[C@@H](C)CC)[C@@H](C)CC` [L1P3V8] (Palmitoyl-DGKSKGIAYIEFK-NH2) the IC50 ([1]; read-out: IC50, inhibition of cell death (LDH enzyme activity reduced by 50%), peptide added without DeliverX immediately after plasmid transfection, LDH 72 hr after treatment, mean ± S.E.M., at least 3 experiments) was ~100 nM, the AUC0-last [2, 4] was 2277 ± 558^*** min * nmol/L and the T1/2 [2, 4] was 37 ± 5 min. The Tmax [2, 4] was 18 ± 1 min, the Cmax [2, 5] was 74 ± 13^*** nmol/L and the level at time molar at 1.5 h ([2]; Sprague-Dawley, rat, in vivo, iv, 3 umol/kg) was 190 nM. It also gave an AUC(0-t) [2, 6] of 2.99 µM·h, a Cmax [2, 6] of 10400 ± 1220 nM and a Tmax [2, 6] of 2 min. The half-life [2, 6] was 17 ± 4 min, the “cytotoxicity (LDH release)” value [3] was “no cytotoxicity; also recorded: no cytotoxic effects” and the cellular uptake level (HEK293 cells) was “low cellular concentration”. For the same molecule, the “cellular uptake level compared to P3V8” value (HEK293 cells; 500 nM and 1 µM peptide) was “higher cellular concentration”.

With Ac-DGKSKGIAYIEFK-NH2 [P3V8] the “suppression of expanded CAG RNA-induced cell death” value ([1]; peptide alone, without DeliverX) was “did not exert any cellular effect”, the “suppression of expanded CAG RNA-induced cell death” value ([1]; peptide transfected with DeliverX 4 hr after plasmid transfection) was “could effectively alleviate the cytotoxicity” and the AUC0-last [2, 4] was 85 ± 32 nmol·min/L. The Tmax [2, 4] was 15 min and 15 ± 4 min, the Cmax [2, 5] was 12 ± 2 nM and the Tmax ([2]; Sprague-Dawley, rat, plasma, iv, 3 umol/kg) was 2 min. For the same molecule, the AUC(0-t) [2, 7] was 0.0202 µM·h, the Cmax [2, 7] was 452 ± 22 nM and the “cytotoxicity (LDH release)” value [3] was “no cytotoxicity; also recorded: no significant cell death”. The cellular uptake level (HEK293 cells) was “no uptake”.
